Data reported in patent US20240360075A1, “N-SUBSTITUTED C6 CYCLYL CARBOXAMIDE COMPOUNDS AND USES THEREOF” (ALCON INC., priority 2023, published 2024).

Target: T1, TRPM8 (Homo sapiens, UniProt Q7Z2W7)
T1 construct: purchased Eurofins (Cerep) item #3316
Assay: TRPM8 Human Transient Potential Ion Channel Cell Based Agonist Calcium Flux Assay (Eurofins Cerep item #3316)
Conditions: for Percent Agonist / Emax: control activator ligand icilin; for EC50: room temperature; for Emax: read-out: Percent Agonist
Description: Compounds can be tested using the commercially available kit from Eurofins “TRPM8 Human Transient Potential Ion Channel Cell Based Agonist Calcium Flux Assay, Cerep” item #3316, or using the assay, referenced by Eurofins, and described in Behrendt et al. “Characterization of the mouse cold-menthol receptor TRPM8 and vanilloid receptor type-1 VR1 using a fluorometric imaging plate reader (FLIPR) assay,” Br J Pharmacol. 2004 Feb;141(4):737-45, which are each incorporated herein by reference. […] 4.
The assay is done at room temperature and measures calcium flux.

T1 sequence (Q7Z2W7 whole entry): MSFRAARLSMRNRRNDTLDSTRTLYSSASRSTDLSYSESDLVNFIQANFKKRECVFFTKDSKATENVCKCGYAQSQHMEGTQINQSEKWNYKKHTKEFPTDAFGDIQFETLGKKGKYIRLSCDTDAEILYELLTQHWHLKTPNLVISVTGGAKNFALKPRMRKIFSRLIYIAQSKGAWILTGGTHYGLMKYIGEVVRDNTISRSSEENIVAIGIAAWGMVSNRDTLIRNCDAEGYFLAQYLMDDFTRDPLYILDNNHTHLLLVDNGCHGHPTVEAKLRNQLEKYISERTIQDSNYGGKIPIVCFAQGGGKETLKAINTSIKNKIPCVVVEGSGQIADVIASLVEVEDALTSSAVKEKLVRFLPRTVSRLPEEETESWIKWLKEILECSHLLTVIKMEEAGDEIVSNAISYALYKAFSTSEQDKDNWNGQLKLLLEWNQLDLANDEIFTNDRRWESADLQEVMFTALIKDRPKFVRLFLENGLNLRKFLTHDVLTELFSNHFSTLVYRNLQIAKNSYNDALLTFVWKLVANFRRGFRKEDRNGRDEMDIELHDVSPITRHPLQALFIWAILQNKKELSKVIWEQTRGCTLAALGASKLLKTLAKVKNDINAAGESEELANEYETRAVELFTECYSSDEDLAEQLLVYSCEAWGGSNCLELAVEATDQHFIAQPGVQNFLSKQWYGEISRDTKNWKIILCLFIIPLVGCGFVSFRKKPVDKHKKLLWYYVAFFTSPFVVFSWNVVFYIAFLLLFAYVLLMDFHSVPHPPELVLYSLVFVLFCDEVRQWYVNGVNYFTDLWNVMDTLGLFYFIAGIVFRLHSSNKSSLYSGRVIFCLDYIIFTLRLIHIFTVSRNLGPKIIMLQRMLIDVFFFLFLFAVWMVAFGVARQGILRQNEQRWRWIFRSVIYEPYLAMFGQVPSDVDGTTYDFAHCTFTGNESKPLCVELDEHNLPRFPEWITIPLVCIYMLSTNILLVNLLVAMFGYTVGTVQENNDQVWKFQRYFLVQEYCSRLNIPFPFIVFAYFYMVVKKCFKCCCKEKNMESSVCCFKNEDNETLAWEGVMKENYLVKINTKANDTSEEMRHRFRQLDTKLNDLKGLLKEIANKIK

Percent Agonist	EC50	Emax	EC50 (no unit printed in this row)	SMILES
>50%	< 100 nM			CC(C)[C@@H]1CC[C@@H](C)C[C@H]1C(=O)NC1CC2C(C1)C2(F)F (stereo partly drawn) [92 or 102]
>75%	< 500 nM			CC(C)[C@@H]1CC[C@@H](C)C[C@H]1C(=O)NC1CC2C(C1)C2(F)F (stereo partly drawn) [102 or 92]
100%	24 nM			COc1ccc(NC(=O)[C@@H]2C[C@H](C)CC[C@H]2C(C)C)cc1 [Compound 1]
	< 500 nM	> 100%		CC(C)[C@@H]1CC[C@@H](C)C[C@H]1C(=O)Nc1ccc(N2CCN(C)CC2)cc1 [Compound 2]
	< 500 nM	> 75%		COCCOc1ccc(NC(=O)[C@@H]2C[C@H](C)CC[C@H]2C(C)C)cc1 [Compound 3]
	< 100 nM	> 50%		CC(C)[C@@H]1CC[C@@H](C)C[C@H]1C(=O)Nc1ccc2c(c1)B(O)OC2 [Compound 4]
	< 500 nM	> 75%		COCCOCCOc1ccc(NC(=O)[C@@H]2C[C@H](C)CC[C@H]2C(C)C)cc1 [Compound 5]
	< 100 nM	> 75%		CC(C)[C@@H]1CC[C@@H](C)C[C@H]1C(=O)Nc1ccc(C2CC2)cc1 [Compound 6]
	< 5000 nM	> 75%		COCCOCCOc1cccc(NC(=O)[C@@H]2C[C@H](C)CC[C@H]2C(C)C)c1 [Compound 9]
	< 5000 nM	> 75%		COc1ccc(CNC(=O)[C@@H]2C[C@H](C)CC[C@H]2C(C)C)cc1 [Compound 10]
	< 500 nM	> 75%		CC(C)[C@@H]1CC[C@@H](C)C[C@H]1C(=O)Nc1ccc(OCCN(C)C)cc1 [Compound 11]
	< 100 nM	> 75%		CC(C)[C@@H]1CC[C@@H](C)C[C@H]1C(=O)Nc1ccc(CO)cc1 [Compound 15]
	< 100 nM	> 75%		CC(C)[C@@H]1CC[C@@H](C)C[C@H]1C(=O)Nc1ccc(CCO)cc1 [Compound 17]
	< 100 nM	> 50%		CC(C)[C@@H]1CC[C@@H](C)C[C@H]1C(=O)Nc1ccc(N2CCOCC2)cc1 [Compound 18]
	< 500 nM	> 75%		CC(C)[C@@H]1CC[C@@H](C)C[C@H]1C(=O)Nc1ccc(OCCN2CCCC2)cc1 [Compound 19]
	< 500 nM	> 100%		CC(C)[C@@H]1CC[C@@H](C)C[C@H]1C(=O)Nc1ccc(C2(CCO)COC2)cc1 [Compound 20]
	< 100 nM	> 75%		CC(C)[C@@H]1CC[C@@H](C)C[C@H]1C(=O)Nc1ccc(C2(O)COC2)cc1 [Compound 21]
	< 500 nM	> 100%		CC(C)[C@@H]1CC[C@@H](C)C[C@H]1C(=O)Nc1ccc(B2OC(C)(C)C(C)(C)O2)cc1 [Compound 22]
	< 500 nM	> 75%		CC(C)[C@@H]1CC[C@@H](C)C[C@H]1C(=O)Nc1cccc(C2(O)COC2)c1 [Compound 23]
	< 500 nM	> 100%		CCOC(=O)CC1(c2ccc(NC(=O)[C@@H]3C[C@H](C)CC[C@H]3C(C)C)cc2)COC1 [Compound 24]
	< 100 nM	> 75%		COC12CC(NC(=O)[C@@H]3C[C@H](C)CC[C@H]3C(C)C)(C1)C2 [Compound 25]
	< 1000 nM	> 75%		COCCN1CC(NC(=O)[C@@H]2C[C@H](C)CC[C@H]2C(C)C)C1 [Compound 26]

Percent Agonist	EC50	Emax	EC50 (no unit printed in this row)	SMILES
	< 5000 nM	> 75%		CC(C)[C@@H]1CC[C@@H](C)C[C@H]1C(=O)NC12CC(C#N)(C1)C2 [Compound 27]
	< 10000 nM	> 75%		CC(C)[C@@H]1CC[C@@H](C)C[C@H]1C(=O)NC1CN(CCO)C1 [Compound 28]
	< 1000 nM	> 100%		CC(C)[C@@H]1CC[C@@H](C)C[C@H]1C(=O)NC12CC(F)(C1)C2 [Compound 29]
	> 10000 nM			CC(C)[C@@H]1CC[C@@H](C)C[C@H]1C(=O)NC1CN(CC(=O)OC(C)(C)C)C1 [Compound 30]
	< 100 nM	> 75%		COC(=O)C12CC(NC(=O)[C@@H]3C[C@H](C)CC[C@H]3C(C)C)(C1)C2 [Compound 31]
	< 2000 nM	> 75%		CC(C)[C@@H]1CC[C@@H](C)C[C@H]1C(=O)NC1CC2(COC2)C1 [Compound 32]
	< 1000 nM	> 100%		CC(C)[C@@H]1CC[C@@H](C)C[C@H]1C(=O)NC12CC(CO)(C1)C2 [Compound 33]
	< 1000 nM	> 75%		CC(C)[C@@H]1CC[C@@H](C)C[C@H]1C(=O)N[C@H]1CC[C@H](N)C1 [Compound 34]
	< 100 nM	> 75%		COCC12CC(NC(=O)[C@@H]3C[C@H](C)CC[C@H]3C(C)C)(C1)C2 [Compound 35]
	< 10000 nM	> 75%		CC(C)[C@@H]1CC[C@@H](C)C[C@H]1C(=O)NC1CCS(=O)(=O)CC1 [Compound 36]
	< 1000 nM	> 100%		COC(=O)NC12CC(NC(=O)[C@@H]3C[C@H](C)CC[C@H]3C(C)C)(C1)C2 [Compound 37]
	< 500 nM	> 75%		CC(C)[C@@H]1CC[C@@H](C)C[C@H]1C(=O)NC1COC1 [Compound 38]
	< 1000 nM	> 75%		COC(=O)CC12CC(NC(=O)[C@@H]3C[C@H](C)CC[C@H]3C(C)C)(C1)C2 [Compound 43]
	< 1000 nM	> 75%		CC(C)[C@@H]1CC[C@@H](C)C[C@H]1C(=O)NC1CC2(CCCO2)C1 (stereo partly drawn) [Compound 44]
	< 1000 nM	> 100%		CC(C)[C@@H]1CC[C@@H](C)C[C@H]1C(=O)NC12CC(CCO)(C1)C2 [Compound 45]
	< 500 nM	> 100%		CC(C)[C@@H]1CC[C@@H](C)C[C@H]1C(=O)NC12CCC(CO)(CC1)C2 [Compound 46]
	< 500 nM	> 100%		CC(C)[C@@H]1CC[C@@H](C)C[C@H]1C(=O)NC12CC(NC(=O)CO)(C1)C2 [Compound 47]
	< 500 nM	> 50%		COC1CC(NC(=O)[C@@H]2C[C@H](C)CC[C@H]2C(C)C)C1 (stereo partly drawn) [Compound 48]
	< 500 nM	> 75%		CON(C)C(=O)C12CC(NC(=O)[C@@H]3C[C@H](C)CC[C@H]3C(C)C)(C1)C2 [Compound 49]
	< 500 nM	> 100%		CO[C@H]1CC[C@H](NC(=O)[C@@H]2C[C@H](C)CC[C@H]2C(C)C)CC1 [Compound 50]
	< 100 nM	> 75%		CC(C)[C@@H]1CC[C@@H](C)C[C@H]1C(=O)NC12CC(C(=O)OC(C)(C)C)(C1)C2 [Compound 51]
	< 1000 nM	> 100%		COCCO[C@H]1CC[C@H](NC(=O)[C@@H]2C[C@H](C)CC[C@H]2C(C)C)CC1 [Compound 52]

Percent Agonist	EC50	Emax	EC50 (no unit printed in this row)	SMILES
	> 10000 nM			CC(C)[C@@H]1CC[C@@H](C)C[C@H]1C(=O)NC12CC(C(=O)O)(C1)C2 [Compound 53]
	> 10000 nM	> 75%		CC(C)[C@@H]1CC[C@@H](C)C[C@H]1C(=O)NC1CCN(C)CC1 [Compound 54]
	< 100 nM	> 75%		COC12CCC(NC(=O)[C@@H]3C[C@H](C)CC[C@H]3C(C)C)(CC1)CC2 [Compound 55]
	< 10000 nM	> 75%		CC(C)[C@@H]1CC[C@@H](C)C[C@H]1C(=O)NCC1COC1 [Compound 56]
	< 1000 nM	> 75%		COC(=O)C12CCC(NC(=O)[C@@H]3C[C@H](C)CC[C@H]3C(C)C)(CC1)CC2 [Compound 57]
	< 1000 nM	> 75%		CC(C)[C@@H]1CC[C@@H](C)C[C@H]1C(=O)NC12CCC(C(F)(F)F)(CC1)C2 [Compound 59]
	< 100 nM	> 75%		CNC(=O)c1cc(OC)ccc1NC(=O)[C@@H]1C[C@H](C)CC[C@H]1C(C)C [Compound 61]
	< 500 nM	> 75%		COC(=O)c1cc(NC(=O)[C@@H]2C[C@H](C)CC[C@H]2C(C)C)sn1 [Compound 62]
	> 10000 nM			CC(C)[C@@H]1CC[C@@H](C)C[C@H]1C(=O)Nc1cc(C(=O)O)ns1 [Compound 64]
	< 1000 nM	> 50%		CC(C)[C@@H]1CC[C@@H](C)C[C@H]1C(=O)Nc1ccccc1CN(C)C [Compound 65]
	< 100 nM	> 75%		CC(C)[C@@H]1CC[C@@H](C)C[C@H]1C(=O)Nc1ccccc1CCN [Compound 67]
	< 7500 nM	> 75%		COC(=O)Cn1cc(NC(=O)[C@@H]2C[C@H](C)CC[C@H]2C(C)C)cn1 [Compound 68]
		> 75%	< 10000 nM	CC(C)[C@@H]1CC[C@@H](C)C[C@H]1C(=O)NC(=N)N [Compound 69]
	< 1000 nM	> 75%		CC(C)[C@@H]1CC[C@@H](C)C[C@H]1C(=O)Nc1cnn(CCO)c1 [Compound 70]
	< 5000 nM	> 75%		COC(=O)c1cc(NC(=O)[C@@H]2C[C@H](C)CC[C@H]2C(C)C)ccn1 [Compound 72]
	< 100 nM	> 50%		CC(C)[C@@H]1CC[C@@H](C)C[C@H]1C(=O)Nc1ccc(N2CCOCC2)nc1 [Compound 73]
	< 100 nM	> 50%		COc1ccc(NC(=O)[C@@H]2C[C@H](C)CC[C@H]2C(C)C)cn1 [Compound 74]
	< 5000 nM	> 75%		COc1ccc(NC(=O)[C@@H]2C[C@H](C)CC[C@H]2C(C)C)nc1Cl [Compound 75]
	< 100 nM	> 50%		CCOc1ccc(NC(=O)[C@@H]2C[C@H](C)CC[C@H]2C(C)C)cn1 [Compound 76]
	< 5000 nM	> 50%		CC(C)[C@@H]1CC[C@@H](C)C[C@H]1C(=O)Nc1ccnc(CN(C)C)c1 [Compound 77]
	< 500 nM	> 75%		COC(=O)c1ccc(NC(=O)[C@@H]2C[C@H](C)CC[C@H]2C(C)C)cn1 [Compound 78]
	< 2000 nM	> 75%		CC(C)[C@@H]1CC[C@@H](C)C[C@H]1C(=O)Nc1ccc(B2OC(C)(C)C(C)(C)O2)cn1 [Compound 79]
